Experimental findings from patent US10562912B2 (C&C Research Laboratories, priority 2013, dated 2020) are described below.

Where only a bound is given, the exact number is not on record here.

What all share (assay type): cell-based
One assay concerns the target T1, STAT3 (Homo sapiens, UniProt P40763).
T1 construct: plasmid pSTAT3-TA-luc), which contains a stably operating STAT3 promoter; endogenous in cells
The assay is described as follows: STAT3 reporter gene assay (luciferase), LNCaP stable cell line (pSTAT3-TA-luc), IL-6 stimulation. In a few lines:
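Cytotoxicity was run on a duplicate plate with CellTiter-Glo, while the other plate gave luciferase read-outs from lysed LNCaP pSTAT3-TA-luc reporter cells. Cells were treated with graded compound concentrations plus IL-6 (10 ng/mL final) for 24–48 h in 3% DCC-FBS medium. Unstimulated and stimulated wells served as negative and positive controls.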

In another assay the test system is AGS. Nature of the assay: Cell growth inhibition assay, stomach cancer cell line AGS. The following applies: Homo sapiens; AGS stomach cancer cell line, 3,000 cells/well. Here is the method: The inhibitory effects of the compounds of the present invention against the growth of cancer cells were evaluated as shown below. The cancer cell lines including stomach cancer cell line (AGS), breast cancer cell lines (MDA-MB-231, MDA-MB-468, and BT-549), prostate cancer cell lines (LNCaP and DU-145), colon cancer cell line (HCT116), ovarian cancer cell line (SW626), liver cancer cell line (Hep3B), kidney cancer cell line (ACHN), lung cancer cell line (NCI-H23) and blood cancer cell lines (HEL92.1.7 and U266) were cultured under the protocol provided by each supplier. A medium supplemented with 10 ng/mL of IL-6 was used for LNCaP, a prostate cancer cell line, when treated with a drug. Each type of cells to be used in experiments were sub-cultured in a 96-well plate by counting the exact number of cells using Tali™ Image-based Cytometer (Life Technologies). In a 96-well plate, AGS, HCT116, and DU-145 were employed with 3,000 cells/well; NCI-H23, SW626, Hep3B, ACHN, BT-549, MDA-MB-231, HEL92.1.7, and U266 were employed with 5,000 cells/well; and LNCaP and MDA-MB-468 were employed with 10,000 cells/well. The cells were treated with the compounds listed in Examples which were diluted in various concentrations. Upon completion of the compounds treatment, AGS, HCT116, SW626, DU145, NCI-H23, Hep3B, ACHN, BT-549, LNCaP, HEL92.1.7, and U266 cells were cultured at 37° C. under 5% CO2 for from 72 to 96 hours, and MDA-MB-231 and MDA-MB-468 cells were cultured at 37° C. in air for from 72 to 96 hours. Subsequently, the cells were observed under microscope and drug precipitation and particular findings were investigated and recorded. And then, the 96-well plate was placed at room temperature for 30 minutes, added with 20 μL/well of CellTiter-Glo solution (Cat No. G7573, Promega) and shaken for 10 minutes, followed by being subjected to the measurement using PHERAstar™ microplate reader (BMG LABTECH) according to the supplier's general luminometer protocol. Wells where only culture liquid added without cell plating were used as a negative control, whereas wells where culture liquid containing 0.1% DMSO instead of the compounds listed in Examples were used as a positive control.

A further assay deals with LNCaP. The assay is described as follows: Cell growth inhibition assay, prostate cancer cell line LNCaP (medium with 10 ng/mL IL-6). Particulars: Homo sapiens, medium supplemented with 10 ng/mL of IL-6, 10,000 cells/well.

T1 sequence (P40763 whole entry): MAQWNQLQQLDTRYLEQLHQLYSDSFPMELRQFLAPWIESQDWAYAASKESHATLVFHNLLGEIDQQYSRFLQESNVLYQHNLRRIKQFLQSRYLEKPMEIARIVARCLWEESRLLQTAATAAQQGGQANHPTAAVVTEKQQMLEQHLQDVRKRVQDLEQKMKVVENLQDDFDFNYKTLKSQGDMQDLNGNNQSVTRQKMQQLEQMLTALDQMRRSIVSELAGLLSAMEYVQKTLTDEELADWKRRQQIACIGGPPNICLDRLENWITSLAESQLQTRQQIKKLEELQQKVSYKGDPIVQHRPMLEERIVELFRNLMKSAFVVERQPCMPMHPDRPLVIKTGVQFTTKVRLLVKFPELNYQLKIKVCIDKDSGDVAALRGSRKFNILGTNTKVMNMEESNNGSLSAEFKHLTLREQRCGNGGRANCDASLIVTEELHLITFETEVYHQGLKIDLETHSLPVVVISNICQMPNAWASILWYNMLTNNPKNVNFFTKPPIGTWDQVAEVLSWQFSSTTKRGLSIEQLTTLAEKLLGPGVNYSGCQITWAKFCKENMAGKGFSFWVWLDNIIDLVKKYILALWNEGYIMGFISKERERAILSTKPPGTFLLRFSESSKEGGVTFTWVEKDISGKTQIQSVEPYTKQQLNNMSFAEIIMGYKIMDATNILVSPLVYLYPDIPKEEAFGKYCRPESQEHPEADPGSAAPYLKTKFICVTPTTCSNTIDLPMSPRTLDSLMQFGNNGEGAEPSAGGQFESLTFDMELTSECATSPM

One may read the IC50 as the midpoint of a concentration-inhibition curve. A high value points to a need for much substance. `O=C(Nc1cccc(-c2ccc(F)cc2F)c1)c1cc2ccc([N+](=O)[O-])cc2[nH]1` [Example 225, N-(2′,4′-difluoro-[1,1′-biphenyl]-3-yl)-6-nitro-1H-indole-2-carboxamide]: the IC50 at STAT3 is > 10 µM; in the assay on AGS it was > 50 µM; in the assay with LNCaP it was > 10 µM.
Turning to `O=C(Nc1cccc(-c2ccccc2C(F)(F)F)c1)c1cc2ccc([N+](=O)[O-])cc2[nH]1` [Example 226, 6-nitro-N-(2′-(trifluoromethyl)-[1,1′-biphenyl]-3-yl)-1H-indole-2-carboxamide], the values for the IC50 at STAT3, with AGS and in the assay on LNCaP were 6.3 µM, 6.9 µM and > 10 µM, respectively.
In the same order, the values of `O=C(Nc1cccc(-c2ccccc2C(F)(F)F)c1)c1cc2cc([N+](=O)[O-])ccc2[nH]1` [Example 227, 5-nitro-N-(2′-(trifluoromethyl)-[1,1′-biphenyl]-3-yl)-1H-indole-2-carboxamide] are > 10 µM, 30 µM and > 10 µM.
As for `Cc1c(C(=O)Nc2cccc(-c3ccccc3C(F)(F)F)c2)[nH]c2ccc([N+](=O)[O-])cc12` [Example 228, 3-methyl-5-nitro-N-(2′-(trifluoromethyl)-[1,1′-biphenyl]-3-yl)-1H-indole-2-carboxamide], the IC50 at STAT3 was > 10 µM; in the assay on AGS it was 41.4 µM; in the assay with LNCaP, > 10 µM.
As for `O=C(Nc1cccc(-c2ccc(F)cc2C(F)(F)F)c1)C1Cc2ccc([N+](=O)[O-])cc2N1` (stereo not drawn) [Example 229, N-(4′-fluoro-2′-(trifluoromethyl)-[1,1′-biphenyl]-3-yl)-6-nitroindoline-2-carboxamide], the results for the IC50 at STAT3, with AGS and in the assay on LNCaP were 1.4 µM, 16.1 µM and 5.4 µM, respectively.
Taken in the same sequence, the figures for `O=C(Nc1cccc(-c2ccccc2C(F)(F)F)c1)C1Cc2ccc([N+](=O)[O-])cc2N1` (stereo not drawn) [Example 230, 6-nitro-N-(2′-(trifluoromethyl)-[1,1′-biphenyl]-3-yl)indoline-2-carboxamide] were 1.1 µM, 17.6 µM and 2.7 µM.
Consider `O=C(Nc1cccc(-c2ccc(F)cc2F)c1)C1Cc2ccc([N+](=O)[O-])cc2N1` (stereo not drawn) [Example 231, N-(2′,4′-difluoro-[1,1′-biphenyl]-3-yl)-6-nitroindoline-2-carboxamide], for which the figures for the 50% inhibitory concentration (IC50) against STAT3, with AGS and in the assay on LNCaP were 2.9 µM, 19.3 µM and > 10 µM, respectively.
In the same order, the values of `O=C(Nc1cccc(-c2ccccc2C(F)(F)F)c1)c1nc2ccc([N+](=O)[O-])cc2s1` [Example 232, 6-nitro-N-(2′-(trifluoromethyl)-[1,1′-biphenyl]-3-yl)benzo[d]thiazole-2-carboxamide] are > 10 µM, 20.5 µM and > 10 µM.
In the same order, the values of `O=C(Nc1cccc(-c2ccc(F)cc2F)c1)c1nc2cc([N+](=O)[O-])ccc2[nH]1` [Example 233, N-(2′,4′-difluoro-[1,1′-biphenyl]-3-yl)-5-nitro-1H-benzo[d]imidazole-2-carboxamide] are > 10 µM, > 50 µM and > 10 µM.
Taken in the same sequence, the figures for `O=C(Nc1cccc(-c2ccccc2C(F)(F)F)c1)c1nc2cc([N+](=O)[O-])ccc2[nH]1` [Example 234, 5-nitro-N-(2′-(trifluoromethyl)-[1,1′-biphenyl]-3-yl)-1H-benzo[d]imidazole-2-carboxamide] were > 10 µM, 1.6 µM and 1.56 µM.
As for `O=C(Nc1cccc(-c2ccc(F)cc2C(F)(F)F)c1)c1nc2cc([N+](=O)[O-])ccc2[nH]1` [Example 235, N-(4′-fluoro-2′-(trifluoromethyl)-[1,1′-biphenyl]-3-yl)-5-nitro-1H-benzo[d]imidazole-2-carboxamide], the figures for the IC50 on STAT3, in the assay on AGS and in the assay on LNCaP were > 10 µM, 37 µM and > 10 µM, respectively.
Consider `O=C(Nc1cccc(-c2ccc(F)cc2C(F)(F)F)c1)c1cc2ccc([N+](=O)[O-])cc2[nH]1` [Example 244, N-(4′-fluoro-2′-(trifluoromethyl)-[1,1′-biphenyl]-3-yl)-6-nitro-1H-indole-2-carboxamide], for which the values for the IC50 against STAT3, in the assay on AGS and in the assay on LNCaP were > 10 µM, 30.6 µM and > 10 µM, respectively.
With `Cn1c(C(=O)Nc2cccc(-c3ccc(F)cc3F)c2)cc2ccc([N+](=O)[O-])cc21` [Example 247, N-(2′,4′-difluoro-[1,1′-biphenyl]-3-yl)-1-methyl-6-nitro-1H-indole-2-carboxamide], the IC50 on STAT3 is > 10 µM; in the assay on AGS, > 50 µM; with LNCaP, 3.7 µM.
In the same order, the values of `Cn1c(C(=O)Nc2cccc(-c3ccc(F)cc3F)c2)cc2ccc(NS(C)(=O)=O)cc21` [Example 248, N-(2′,4′-difluoro-[1,1′-biphenyl]-3-yl)-1-methyl-6-(methylsulfonamido)-1H-indole-2-carboxamide] are 6.1 µM, 15.7 µM and 9.6 µM.
In the same order, the values of `Cn1c(C(=O)Nc2cccc(-c3ccccc3C(F)(F)F)c2)cc2ccc([N+](=O)[O-])cc21` [Example 249, 1-methyl-6-nitro-N-(2′-(trifluoromethyl)-[1,1′-biphenyl]-3-yl)-1H-indole-2-carboxamide] are > 10 µM, 8.4 µM and > 10 µM.
In the same order, the values of `Cn1c(C(=O)Nc2cccc(-c3ccccc3C(F)(F)F)c2)cc2cc([N+](=O)[O-])ccc21` [Example 250, 1-methyl-5-nitro-N-(2′-(trifluoromethyl)-[1,1′-biphenyl]-3-yl)-1H-indole-2-carboxamide] are > 10 µM, 22 µM and > 10 µM.
With `Cc1c(C(=O)Nc2cccc(-c3ccccc3C(F)(F)F)c2)n(CCN2CCOCC2)c2ccc([N+](=O)[O-])cc12` [Example 251, 3-methyl-1-(2-morpholinoethyl)-5-nitro-N-(2′-(trifluoromethyl)-[1,1′-biphenyl]-3-yl)-1H-indole-2-carboxamide], the IC50 on STAT3 was > 10 µM; in the assay on AGS it was 26.7 µM; in the assay on LNCaP, > 10 µM.
On to `O=C(Nc1cccc(-c2ccccc2C(F)(F)F)c1)c1cc2ccc([N+](=O)[O-])cc2n1CCN1CCOCC1` [Example 252, 1-(2-morpholinoethyl)-6-nitro-N-(2′-(trifluoromethyl)-[1,1′-biphenyl]-3-yl)-1H-indole-2-carboxamide], for which the IC50 at STAT3 is > 10 µM; in the assay on AGS, 11.4 µM; in the assay with LNCaP, > 10 µM.
Consider `Cn1c(C(=O)Nc2cccc(-c3ccccc3C(F)(F)F)c2)cc2ccc(NS(C)(=O)=O)cc21` [Example 253, 1-methyl-6-(methylsulfonamido)-N-(2′-(trifluoromethyl)-[1,1′-biphenyl]-3-yl)-1H-indole-2-carboxamide], for which the IC50 stood at 4.7 µM against STAT3, 7.6 µM with AGS and 8.5 µM in the assay with LNCaP.
Taken in the same sequence, the figures for `CC(C)(Oc1ccc2cc(C(=O)Nc3cccc(-c4ccc(F)cc4F)c3)[nH]c2c1)C(=O)O` [Example 254, 2-((2-((2′,4′-difluoro-[1,1′-biphenyl]-3-yl)carbamoyl)-1H-indol-6-yl)oxy)-2-methylpropanoic acid] were > 10 µM, > 50 µM and > 10 µM.
Taken in the same sequence, the figures for `CCOC(=O)COc1ccc2cc(C(=O)Nc3cccc(-c4ccc(F)cc4F)c3)[nH]c2c1` [Example 255, ethyl 2-((2-((2′,4′-difluoro-[1,1′-biphenyl]-3-yl)carbamoyl)-1H-indol-6-yl)oxy)acetate] were > 10 µM, 18.1 µM and > 10 µM.
In the same order, the values of `O=C(O)COc1ccc2cc(C(=O)Nc3cccc(-c4ccc(F)cc4F)c3)[nH]c2c1` [Example 256, 2-((2-((2′,4′-difluoro-[1,1′-biphenyl]-3-yl)carbamoyl)-1H-indol-6-yl)oxy)acetic acid] are > 10 µM, > 50 µM and > 10 µM.
